Legend:
aurora-2 kinase = molecular target: T1, aurora-2 kinase (Homo sapiens, UniProt O14965); experiment: Aurora-2 kinase inhibition assay (Kinase-Glo); assay type: biochemical; details: aurora-2 kinase, FIG. 11
T1 construct: purchased Imgenex, San Diego, Calif; host or cells: sf9 cells
T1 sequence (O14965 1-403): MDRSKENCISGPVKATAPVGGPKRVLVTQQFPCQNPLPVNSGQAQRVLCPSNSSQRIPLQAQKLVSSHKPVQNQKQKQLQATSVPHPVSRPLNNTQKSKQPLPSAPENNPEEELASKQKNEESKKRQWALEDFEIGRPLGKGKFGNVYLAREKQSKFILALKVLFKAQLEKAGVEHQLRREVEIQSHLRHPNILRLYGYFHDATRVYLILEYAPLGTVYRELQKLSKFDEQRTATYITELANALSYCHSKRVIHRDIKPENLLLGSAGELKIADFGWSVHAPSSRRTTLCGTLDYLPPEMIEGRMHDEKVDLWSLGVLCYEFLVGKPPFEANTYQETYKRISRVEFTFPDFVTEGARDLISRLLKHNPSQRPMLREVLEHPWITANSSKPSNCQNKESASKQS
Description: In this assay kinase activity is determined by quantifying the amount of ATP remaining in solution following the kinase reaction by measuring the light units (LU) produced by luciferase using a luminometer. Percent inhibition was determined for individual compounds by comparing luminometer readings of drug-treated reactions to controls containing no drug (DMSO control) and no Aurora-2 enzyme (ATP control) in the following equation: […]
In a 50 μl reaction, recombinant aurora-2 kinase produced in sf9 cells (Imgenex, San Diego, Calif.) was incubated at 30° C. for two hours with 62.5 μM Kemptide (Calbiochem, San Diego, Calif.), 3 μM ATP (Invitrogen, Carlsbad, Calif.) and kinase reaction buffer (40 mM Tris-HCl, 10 mM MgCl2 and 0.1 μg/μl bovine serum albumin (BSA)). This reaction was carried out in the presence of drug substances, which had been previously diluted to desired concentrations in DMSO. After incubation, 50 μl of Kinase-Glo® (Promega, Inc., Madison, Wis.) solution was added to each reaction mixture and allowed to equilibrate for 10 minutes at room temperature. Kinase-Glo solution contains luciferase enzyme and luciferin, which react with ATP to produce light. Kinase activity is determined by quantifying the amount of ATP remaining in solution following the kinase reaction by measuring the light units (LU) produced by luciferase using a luminometer (PerkinElmer, Boston, Mass.).

GIST882 cell line [1] = experiment: Cancer cell cytotoxicity assay (sulforhodamine B); assay type: cell-based; details: for IC50: Homo sapiens, 96 h, GIST882, 4 days, read-out: IC50 c-kit GIST882
Description: To validate the hypothesis that the designed c-kit/PDGFR tyrosine kinase inhibitors mediate GIST882 cell killing and PDGFR-mediated cell killing of pancreatic cancer cell lines (CFPAC-1, PANC-1 and MIA PaCa-2), an in vitro cytotoxicity assay was performed. The GIST882 cell line used in this study has a c-kit gain-of-function mutation (K642E). […] First the cells were cultured. GIST882 cells were provided by Dr. Jonathan A. Fletcher (Dana-Farber Cancer Institute, Boston, Mass.). PANC-1 and MIAPaCa-2 cells were provided by Dr. Daniel Von Hoff (Arizona Cancer Center, Tucson, Ariz.). […] All the cell lines were incubated in a humidified incubator at 37° C. with 5% CO2 atmosphere.
(§1) After incubation for 4 days at 37° C. in a humidified incubator, the cells were fixed with 10% Trichloroacetic acid solution (Catalog No. 490-10, Sigma). Subsequently, they were labeled with 0.04% Sulforhodamine B (S9012, Sigma) in 1% acetic acid. After multiple washes to remove excess dye, 100 μl of 50 mM Tris solution was added to each well in order to dissolve the dye. The absorbance of each well was read on a plate reader (Wallac Vector^2, PerkinElmer) at the wavelength of 570 nm. Data were expressed as the percentage of survival of control calculated from the absorbance corrected for background absorbance. The surviving percent of cells was determined by dividing the mean absorbance values of the […] by the mean absorbance values of the control and multiplying by 100.

PANC-1 cells = experiment: Cancer cell cytotoxicity assay (sulforhodamine B); assay type: cell-based; details: Homo sapiens, 96 h; PANC-1, 4 days; read-out: IC50 PDGFR PANC-1
Description: (§2) To validate the hypothesis that the designed c-kit/PDGFR tyrosine kinase inhibitors mediate GIST882 cell killing and PDGFR-mediated cell killing of pancreatic cancer cell lines (CFPAC-1, PANC-1 and MIA PaCa-2), an in vitro cytotoxicity assay was performed. The GIST882 cell line used in this study has a c-kit gain-of-function mutation (K642E). The assay utilized the Cell Titer 965 Non-Radioactive Cell Proliferation Assay (Promega Corp., Madison, Wis.). First the cells were cultured. GIST882 cells were provided by Dr. Jonathan A. Fletcher (Dana-Farber Cancer Institute, Boston, Mass.). PANC-1 and MIAPaCa-2 cells were provided by Dr. Daniel Von Hoff (Arizona Cancer Center, Tucson, Ariz.). GIST882 cells were cultured in RPMI 1640 medium (Cat #21870-076, Invitrogen Corporation) supplemented with 300 mg/L L-glutamine, 100 unit/ml penicillin, 100 μg/ml streptomycin and 15% fetal bovine serum. PANC-1 and MIAPaCa-2 cells were maintained in RPMI 1640 medium (cat #10-040, Mediatech, Inc.) supplemented with 100 unit/ml penicillin, 100 μg/ml streptomycin and 10% fetal bovine serum. All the cell lines were incubated in a humidified incubator at 37° C. with 5% CO2 atmosphere.
as §1, with “Cells were plated at a density of 2000 to 10000 cells per well, depending on their growth rate, in 0.1 mL medium on day 0 in 96-well Falcon microtiter plates (#3072, Becton-Dickinson Labware, Lincoln Park, N.J.). On day 1, 10 μL of serial dilutions of the individual compounds were added to the plates in replicates of 4. After incubation” for “After incubation”

MIAPaCa-2 cells = experiment: Cancer cell cytotoxicity assay (sulforhodamine B); assay type: cell-based; details: Homo sapiens, MIA PaCa-2, 96 h; MIAPaCa-2, 4 days; read-out: IC50 PDGFR MIAPaCa
Description: as §2
as §1, with “Cells were plated at a density of 2000 to 10000 cells per well, depending on their growth rate, in 0.1 mL medium on day 0 in 96-well Falcon microtiter plates (#3072, Becton-Dickinson Labware, Lincoln Park, N.J.). On day 1, 10 μL of serial dilutions of the individual compounds were added to the plates in replicates of 4. After incubation” for “After incubation”

GIST882 cell line [2] = experiment: GIST882 cell growth assay (Cell-Titer-Glo); assay type: cell-based; details: Homo sapiens; GIST882, 96 hours
Description: (§3) Briefly, cells are seeded into 96-well, tissue-culture treated, opaque white plates (Thermo Electron, Vantaa, Finland), at between 5000 and 7500 cells per well, depending on the speed of cell proliferation, in 100 μl of appropriate growth medium (determined by the ATCC). Cells are then exposed to the appropriate concentration of drug or an equal amount of DMSO (drug diluent) and allowed to grow in its presence for 96 hours. Following this, 100 μl of Cell-Titer-Glo reagent (Promega, Inc., Madison, Wis.) is added to each well. Plates are then shaken for 2 minutes at room temperature to allow for cell lysis and incubated for 10 minutes to stabilize the luminescent signal. Similar to the Kinase-Glo assay reagent, this reagent contains both luciferase enzyme and its substrate luciferin. Luciferase, activated by ATP in the cell lysate, catalyzes the conversion of luciferin to oxyluciferin, a reaction which produces light. The amount of light produced is proportionate to the amount of ATP in the cell lysate, which is itself proportional to cell number and gives an index of cellular proliferation.
as §3, with “Various compounds of the invention, including (IV-1-3) (also referred to as HPK16), (III-1-3) (also referred to as HPK56), (III-1-4) (also referred to as HPK57), (III-1-5) (also referred to as HPK59), and (II-2-7) (also referred to as HPK61) were tested for activity against GIST tumor cells using the GIST882 cell line. Briefly,” for “Briefly,”

metastatic GISTs = details: 400 mg or 600 mg per day, patients assessed at 1-3 months; cited from earlier work
[3] = test system: c-Met autophosphorylation in NIH 3T3 cells; experiment: Immunoblot for phospho-Met; assay type: cell-based; details: NIH 3T3, 4 hours, agent alone
Description: (§4) MP-470 (Compound III-1-3) has inhibitory effects on a number of receptor tyrosine kinases. In order to evaluate these effects at the cellular level, immunoblot analysis was performed on lysates from cells treated with MP470, with or without the addition of the EGFR inhibitor Tarceva®. Lysates were assayed for general tyrosine kinase activity, as well as the specific phosphorylation of c-Met and Akt. Briefly, NIH 3T3 cells were pretreated with drugs as indicated for 4 hours, then treated with pervanadate for a further 30 minutes. Immunoblot detection was carried out with antibodies for phosphotyrosine, phospho-Met and phospho-Akt (S473), as well as total c-Met and Akt. Beta-actin was used as a loading control.

[4] = test system: Akt phosphorylation in NIH 3T3 cells; experiment: Immunoblot for phospho-Akt (S473); assay type: cell-based; details: NIH 3T3, 4 hours, agent alone
Description: as §4, with “In” for “MP-470 (Compound III-1-3) has inhibitory effects on a number of receptor tyrosine kinases. In”

[5] = test system: Akt phosphorylation in LNCaP prostate carcinoma cells; experiment: Immunoblot for phospho-Akt (S473); assay type: cell-based; details: 48 hours, agent alone
Description: LNCaP prostate carcinoma cells were treated with MP-470, in combinations with Tarceva® and Gleevec®, for 48 hours. Following incubation, cells were lysed and total protein subjected to immunoblot analysis for total Akt and phospho-Akt (S473).

Row | SMILES | IC50 (GIST882 cell line [1]) [µM] | IC50 (PANC-1 cells) [µM] | IC50 (MIAPaCa-2 cells) [µM] | IC50 (GIST882 cell line [2]) [µM] | also measured
1 | COc1cc2ncnc(Nc3ncc(NC(=S)NCc4ccc5c(c4)OCO5)cn3)c2cc1OC [AKS110, 1-Benzo[1,3]dioxol-5-yl methyl-3-[2-(6,7-dimethoxy-quinazolin-4ylamino)-pyrimidin-5yl]-thiourea] |  |  |  |  | IC50 (aurora-2 kinase): 36 µM
2 | S=C(NCc1ccc2c(c1)OCO2)N1CCN(c2ncnc3c2sc2ncccc23)CC1 [HPK57, 4-(9-Thia-1,5,7-triaza-fluoren-8-yl)-piperazine-1-carbothioic acid (benzo[1,3]dioxol-5-ylmethyl)-amide] | 28 | > 50 | > 50 | 28 | 
3 | O=S(=O)(Nc1ncccn1)c1ccc(NC(=S)N2CCN(c3ncnc4c3oc3ccccc34)CC2)cc1 [HPK59, 4-Benzo[4,5]furo[3,2-d]pyrimidin-4-yl-piperazine-1-carbothioic acid [4-(pyrimidin-2-ylsulfamoyl)-phenyl]-amide] | 27.5 |  |  | 27.5 | 
4 | O=S(=O)(Nc1ncccn1)c1ccc(NC(=S)N2CCN(c3ncnc4c3sc3ncccc34)CC2)cc1 [HPK60, 4-(9-Thia-1,5,7-triaza-fluoren-8-yl)-piperazine-1-carbothioic acid [4-(pyrimidin-2-ylsulfamoyl)-phenyl]-amide] | 50 | > 50 | > 50 | 50 | 
5 | Cc1ccc(NC(=O)c2ccc(CN3CCN(C)CC3)cc2)cc1Nc1nccc(-c2cccnc2)n1 [STI571] |  |  |  |  | cells alive at day 4 (GIST882 cell line [1]; GIST882, day 4): 25%; partial response (metastatic GISTs): 54%; progressive disease (metastatic GISTs): 12%; stable disease (metastatic GISTs): 34%
6 | C#Cc1cccc(Nc2ncnc3cc(OCCOC)c(OCCOC)cc23)c1 [Tarceva®, reference compound] |  |  |  |  | activating autophosphorylation of c-Met [3]: Neither of these effects was observed; phosphorylation of Akt [4]: Neither of these effects was observed; phosphorylation of Akt [5]: did not appear to have an effect
